The text below walks through data of ChEMBL document CHEMBL1201862, “PubChem BioAssay data set” (2004).

The structures appear in SMILES notation. Where a name gives a salt, the structure may show the parent alone.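 Cells were grown in 96-well plates and exposed to each compound for 48 hours at five concentrations; endpoints were interpolated linearly between bracketing concentrations, or set to the highest concentration if not reached. Here, GI50 denotes the concentration required for 50% inhibition of growth.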 Active and inactive are the calls of the source. Cut-off read from the data, not from the text of the source: active = GI50 up to about 1.1 µM and inactive = higher.

Some test systems named below: DLD-1; XF498; M19-MEL; RXF 631; Hs-578T; MDA-MB-435; MDA-N; PC-3; T47D.
Test in all cases: NCI tumour cell line growth inhibition, 48 h

As for `CN1CCc2cc(O)c3cc2C1Cc1ccc(cc1)Oc1cc(ccc1O)CC1c2c(cc4c(c2O3)OCO4)CCN1C` (stereo unspecified), the GI50 with DLD-1 was 75.3 µM (inactive); in the assay on XF498, 14.4 µM (inactive).

Turning to `O=c1ccc(=O)c2c(=O)c3ccccc3c(=O)c1=2`, the values for the GI50 with DLD-1, in the assay on M19-MEL and in the assay on XF498 were 38.2 µM (inactive), 14.3 µM (inactive) and > 100 µM (inactive), respectively.

On to `O=C1C2C3C=CC(C2C(=O)N1CO)C1C2C(=O)N(CO)C(=O)C2C31` (stereo unspecified), for which the GI50 is > 46.9 µM (inactive) in the assay on DLD-1, > 68.5 µM (inactive) in the assay on M19-MEL, > 54.6 µM (inactive) in the assay on RXF 631 and > 100 µM (inactive) in the assay with XF498.

Regarding `O=[N+]([O-])c1nccn1COCCF`, the GI50 with DLD-1, with M19-MEL and in the assay on XF498 was > 100 µM (inactive) throughout.

`Cc1ccc(C2C(Cl)C(=O)N2NC(=O)c2ccc(N)cc2)cc1` (stereo unspecified): the values for the GI50 with DLD-1, with M19-MEL and in the assay with XF498 were 20.5 µM (inactive), 19.8 µM (inactive) and 13.3 µM (inactive), respectively.

Consider `O=C(O)C1c2ccccc2C(C(=O)O)c2ccccc21` (stereo unspecified), for which the GI50 with DLD-1 and in the assay on M19-MEL was > 100 µM (inactive) throughout.

As to `CC1=C(O)C(=O)c2cn(C)cc2C1=O`, the GI50 with DLD-1, in the assay with M19-MEL and with XF498 was > 100 µM (inactive) throughout.

Regarding `COc1ccc2c(c1)CCc1c(CO)c(COC(=O)NC(C)C)n(C)c1-2`, the GI50 in the assay with DLD-1 is 4.72 µM (inactive); with M19-MEL, 3.7 µM (inactive); in the assay on RXF 631, 13 µM (inactive); with XF498, 7.83 µM (inactive).

For `CN1c2ccccc2N(C)C23N(C)c4ccccc4N(C)C12N(C)c1ccccc1N3C` (stereo unspecified), the GI50 was > 100 µM (inactive) in the assay on DLD-1, > 100 µM (inactive) with M19-MEL, > 100 µM (inactive) in the assay on RXF 631 and 49.1 µM (inactive) in the assay on XF498.

In the case of `N#CC(C#N)SCc1ccccc1`, the GI50 was 36.6 µM (inactive) with DLD-1; 26.5 µM (inactive) with Hs-578T; 54.1 µM (inactive) with M19-MEL; 17.6 µM (inactive) with MDA-MB-435; 1.63 µM (inactive) in the assay with MDA-N; 2.79 µM (inactive) in the assay on PC-3. The GI50 in the assay with T47D was 18.5 µM (inactive).

`CC1=CC2CC(C)C1(C)CCc1ccoc12` (stereo unspecified): the GI50 in the assay with DLD-1, in the assay with M19-MEL, in the assay on RXF 631 and with XF498 was > 100 µM (inactive) throughout.

Turning to `Nc1ccn(CC(CO)CC(c2ccccc2)P(=O)(O)O)c(=O)n1` (stereo unspecified), the GI50 in the assay on DLD-1, in the assay with M19-MEL and with XF498 was > 100 µM (inactive) in each case.

Turning to `O=C1OC(c2ccccc2)=N/C1=C/NC(Cc1c[nH]c2ccccc12)C(=O)O` (stereo unspecified), the GI50 with DLD-1, with M19-MEL and with XF498 was > 100 µM (inactive) throughout.

With `CC(C)(C)/N=C/N1C=Cc2nc3ccccc3cc2C1`, the GI50 in the assay on DLD-1 is 34.1 µM (inactive); with M19-MEL it was > 100 µM (inactive); in the assay with RXF 631, > 100 µM (inactive); in the assay on XF498, > 100 µM (inactive).

For the compound `O=C(CCc1nnc2s/c(=C\c3ccccc3Cl)c(=O)n12)Nc1cc(Cl)ccc1Cl`, the GI50 in the assay on DLD-1 is > 100 µM (inactive); in the assay with M19-MEL, > 100 µM (inactive); in the assay on XF498 it was 70.8 µM (inactive).

`[O-]/N=[N+](/[O-])C1CCCCC1=[N+]1CCOCC1` (stereo unspecified): the GI50 with M19-MEL is > 100 µM (inactive); with XF498, 0.157 µM (active).

As to `COC(=O)c1cc(CC(C)C)c2c(c1)[nH]c1ccccc12`, the GI50 with DLD-1, in the assay with M19-MEL and with XF498 was > 100 µM (inactive) each time.

Take `CNNCc1ccc(C(=O)NC(C)C)cc1` [PROCARBAZINE HYDROCHLORIDE]: the GI50 in the assay on DLD-1 was > 500 µM (inactive); in the assay on Hs-578T, > 500 µM (inactive); with M19-MEL, > 500 µM (inactive); with MDA-MB-435 it was > 379 µM (inactive); in the assay on MDA-N, > 500 µM (inactive); in the assay on PC-3 it was > 500 µM (inactive). Moreover, the GI50 in the assay on T47D and with XF498 was > 500 µM (inactive) each time.

Consider `COc1ccc(-c2ccccc2)c(N/N=C2\CCCNC2=O)c1`, for which the figures for the GI50 in the assay on DLD-1, in the assay on M19-MEL and with XF498 were > 100 µM (inactive), > 100 µM (inactive) and 18.7 µM (inactive), respectively.

Take `NCCCCNCCCNC(=O)c1nc(-c2csc(CCN)n2)sc1Cl`: the GI50 in the assay on DLD-1, with M19-MEL and with XF498 was > 100 µM (inactive) throughout.

As to `O=S1(=O)C(=C(c2ccccc2)c2ccccc2)S(=O)(=O)c2ccccc21`, the results for the GI50 in the assay on DLD-1, with M19-MEL and in the assay on XF498 were > 100 µM (inactive), > 100 µM (inactive) and 24.7 µM (inactive), respectively.

Regarding `CC(C)OP(=O)(OC(C)C)/C(=N/Nc1ccc([N+](=O)[O-])cc1)NN`, the GI50 in the assay with DLD-1 was > 100 µM (inactive); in the assay on M19-MEL, > 100 µM (inactive); in the assay on XF498 it was 68.9 µM (inactive).

Turning to `COc1ccc2[nH]c3c(c2c1)[C@H]1CCC(C(C)(C)C)C[C@H]1[C@H]1C(=O)N(c2ccccc2)C(=O)[C@@H]31` (stereo partly specified), the GI50 was 13.5 µM (inactive) in the assay with DLD-1, 26.1 µM (inactive) in the assay with M19-MEL, 6.15 µM (inactive) with RXF 631 and 9.91 µM (inactive) with XF498.

As for `Cc1ccc(NCC2(/N=C/c3ccccc3)OC(CO)C(O)C2O)cc1` (stereo unspecified), the results for the GI50 with DLD-1 and in the assay on XF498 were 72.4 µM (inactive) and > 100 µM (inactive), respectively.

Consider `O=C(CC1(O)C(=O)Nc2ccc(Br)cc21)c1cccc([N+](=O)[O-])c1` (stereo unspecified), for which the GI50 is 34.5 µM (inactive) in the assay with DLD-1 and > 100 µM (inactive) with RXF 631.

In the case of `O=C1C(Cl)=C(Cl)C(=O)N1C1C2CC3CC(C2)CC1C3` (stereo unspecified), the GI50 is > 60.1 µM (inactive) with DLD-1, > 100 µM (inactive) in the assay with M19-MEL and > 100 µM (inactive) with XF498.

In the case of `O=C1NC2CCC(C2)C1c1ccccc1` (stereo unspecified), the GI50 in the assay with DLD-1, in the assay with M19-MEL and with RXF 631 was > 100 µM (inactive) each time.

As to `COC(=O)C1=C(C[S+]([O-])c2ccccc2[N+](=O)[O-])ON(C)C1c1ccccc1` (stereo unspecified), the GI50 with DLD-1 is 30.9 µM (inactive); in the assay with M19-MEL, 47 µM (inactive); with XF498, 31.1 µM (inactive).

`CCC12CCC(O)C1N(C)CCC2Sc1ccccc1` (stereo unspecified): the figures for the GI50 with M19-MEL, in the assay with RXF 631 and in the assay on XF498 were > 100 µM (inactive), > 100 µM (inactive) and 26.4 µM (inactive), respectively.

As to `COc1ccc(/C=C2\Sc3nnc(CNc4ccc(Cl)cc4)n3N=C2c2cc(F)c(Cl)cc2Cl)cc1OC`, the GI50 is 51.2 µM (inactive) in the assay with Hs-578T; 27.2 µM (inactive) in the assay on MDA-MB-435; 24 µM (inactive) in the assay with MDA-N; 67.1 µM (inactive) with PC-3; 44.3 µM (inactive) in the assay on T47D.

With `C=C(C[C@@H](O)[C@H](C)NC(=O)OCc1ccccc1)C(=O)OC(C)(C)C`, the GI50 in the assay with Hs-578T is > 100 µM (inactive); with MDA-MB-435, 49.7 µM (inactive); in the assay on MDA-N, 29.7 µM (inactive); in the assay with PC-3, > 100 µM (inactive); in the assay on T47D, 13.1 µM (inactive).

Take `COc1c2c(nc3ccccc13)-c1cc(C(CC(=O)OC(C)(C)C)C(=O)OC(C)C)c(CO)c(=O)n1C2` (stereo unspecified): the GI50 was > 75.3 µM (inactive) with Hs-578T; > 94.2 µM (inactive) in the assay with MDA-MB-435; > 100 µM (inactive) with MDA-N; > 86.1 µM (inactive) in the assay on PC-3; 22.1 µM (inactive) with T47D.

As for `CC1CC(c2ccc(Cl)c(Cl)c2)=Nc2ccccc2S1` (stereo unspecified), the GI50 with DLD-1, with M19-MEL and with XF498 was > 100 µM (inactive) in each case.

As for `O=C1c2ccccc2C(=O)c2nc3c(O)cccc3cc21`, the GI50 in the assay on DLD-1 is 9.75 µM (inactive); in the assay with M19-MEL, 2.12 µM (inactive); with RXF 631, 36.2 µM (inactive).

Consider `COC1C(=O)CCC2(CO2)C1(O)C1(C)OC1CC=C(C)C` (stereo unspecified), for which the GI50 with Hs-578T is 22.1 µM (inactive); with MDA-MB-435 it was 24.5 µM (inactive); with MDA-N, 41 µM (inactive); in the assay with PC-3, 28.3 µM (inactive); with T47D it was > 100 µM (inactive).

On to `Nc1nc(Cl)c(N)c(NC23CC4CC(CC(C4)C2)C3)n1`, for which the GI50 with Hs-578T was 4.4 µM (inactive); in the assay on MDA-MB-435 it was 1.41 µM (inactive); in the assay on MDA-N it was 1.58 µM (inactive); in the assay with PC-3, 1.36 µM (inactive); in the assay with T47D, 1.34 µM (inactive).

On to `O=C(NCCN(CCNC(=O)c1cccc(=O)n1O)CCN(CCNC(=O)c1cccc(=O)n1O)CCNC(=O)c1cccc(=O)n1O)c1cccc(=O)n1O`, for which the GI50 in the assay with Hs-578T, in the assay on MDA-MB-435, in the assay with MDA-N, in the assay on PC-3 and in the assay with T47D was > 100 µM (inactive) in each case.

For `C[n+]1c2ccccc2c(NC(CCCNC(=N)N)C(=O)O)c2ccccc21` (stereo unspecified), the GI50 in the assay with DLD-1, in the assay with M19-MEL and with XF498 was > 100 µM (inactive) in each case.

As to `CC1=NOC(=O)/C1=C/c1ccc([N+](=O)[O-])cc1`, the GI50 in the assay on DLD-1, with RXF 631 and in the assay with XF498 was > 100 µM (inactive) in each case.

With `CC(=O)Nc1c(S(=O)(=O)c2ccccc2)c(C)c(C)n1CCN(C)C`, the GI50 with Hs-578T, in the assay with MDA-MB-435, with MDA-N, in the assay on PC-3 and in the assay with T47D was > 100 µM (inactive) throughout.

For `Cc1ccc(S(=O)(=O)N2CCSCCSCCN(S(=O)(=O)c3ccc(C)cc3)CCN(S(=O)(=O)c3ccc(C)cc3)CC2)cc1`, the GI50 in the assay on Hs-578T, with MDA-MB-435, with MDA-N, with PC-3 and with T47D was > 100 µM (inactive) in each case.

In the case of `Cc1cccc(N(CCC#N)S(=O)(=O)c2ccccc2)c1`, the GI50 in the assay with Hs-578T, in the assay with MDA-MB-435, in the assay on MDA-N, in the assay with PC-3 and in the assay with T47D was > 100 µM (inactive) each time.

On to `O=C(c1cc2ccccc2[nH]1)C(O)(c1cc2ccccc2[nH]1)c1cc2ccccc2[nH]1`, for which the GI50 with DLD-1 and in the assay with RXF 631 was > 246 µM (inactive) throughout.
